Laboratory results reported in patent publication US9352010B2, “Treatment of HIV-1 infection and AIDS” (The J. David Gladstone Institutes, priority 2011, dated 2016).

Key:
[1] = tested on: human monocytes; conditions: LPS and ATP; cited from earlier work
[2] = tested on: CFSE-labeled CD4 T-cells; type: cell-based, human; conditions: for indirect killing (loss) of resting CFSE-labeled CD4 T-cells: NL4-3-infected effector cells
Experimental: (A) Experimental strategy to assess indirect cell killing in HIV-1-infected human lymphoid cultures. Fresh human tonsil tissue from a single donor is processed into HLAC, and then separated into two fractions. One fraction is challenged with HIV-1 and cultured for 6 days, allowing viral spread. On day 5, the uninfected fraction is treated with AZT (5 μM) and labeled with CFSE (1 μM). On day 6, the infected and CFSE-labeled (i.e., uninfected) cultures are mixed and co-cultured in the presence of AZT. […] After 6 days of co-culturing, the number of viable CFSE-positive cells is determined by flow cytometry. (B) Flow cytometry analysis of the mixed HLACs. Indirect killing is determined by gating on live CFSE-positive cells in the mixed cultures. Effector cells are either infected or uninfected cells. […] CFSE-labeled cells mixed with uninfected or infected cells were cultured in the presence of 5 μM AZT alone or together with 250 nM AMD3100. Data represent live CFSE-positive cells 6 days after co-culture with infected or uninfected effector cells. […] The absolute numbers of viable CFSE-positive CD4 and CD8 T-cells and B cells were determined. Percentages are normalized to the number of viable CFSE-positive cells co-cultured with uninfected cells in the presence of AZT, as depicted by (*). Error bars represent standard deviations of three samples from the same donor. […] See also FIG. 3.
(§1) Human tonsil or splenic tissues from routine tonsillectomies were obtained from the National Disease Research Interchange and the Cooperative Human Tissue Network and processed as previously described (Jekle et al., 2003, J Virol 77:5846-5854). In brief, tonsils or spleen were minced, passed through a 40-μm cell strainer, and cultured in 96-well U-bottomed polystyrene plates (2×10^6 cells/well) in medium (200 μl/well) consisting of RPMI 1640 supplemented with 15% heat-inactivated fetal bovine serum, 100 μg/ml gentamicin, 200 μg/ml ampicillin, 1 mM sodium pyruvate, 1% nonessential amino acids (Mediatech), 2 mM L-glutamine, and 1% fungizone (Invitrogen). All HIV-1 infections were carried out with 20-50 ng of HIV-1 p24^gag. Cells were incubated with the virus for 12-16 h, washed extensively, and supplemented with fresh medium. After day 5, infections were monitored by measuring p24gag levels in the culture medium using a FLAQ assay (Hayden et al., 2003, AIDS 17:629-631). Infected and uninfected cultures were manipulated as described for individual experiments. In “indirect killing” assays, unless otherwise stated, drugs were used at the following concentrations: 5 μM AZT; 250 nM AMD3100; 10 μg/ml T20; 100 nM Efavirenz; 1 μM Nevirapine; 30 μM Raltegravir; 60 μM 118-D-24; 5 μM Amprenavir; 5 μM Saquinavir; 5 μM Indinavir. CFSE-labeled cells were activated with PHA (5 μg/ml) and IL-2 (20 ng/ml) 2 days before mixing with effector cells.
Uninfected cells (5×10^6/ml) were labeled with 1 μM CFSE (Molecular Probes C1157), treated with 5 μM AZT for 24 h, and co-cultured with effector cells. CFSE readily diffuses into cells, where intracellular esterases cleave the acetate groups, converting it to a fluorescent, membrane-impermeable dye.

[3] = tested on: SupT1 CD4 T leukemic cells; assay: Syncytia formation in NL4-3-infected SupT1 cells; type: cell-based; conditions: 5 μM protease inhibitor, 2.5 days
Experimental: (A) The spinoculation procedure. (B) Flow cytometry of viable CD4 versus CD8-T-cells in HLAC three days after spinoculation in the presence of the indicated drugs. Data represent live-gated cells, based on the forward-scatter versus side-scatter profile of the complete culture. Of note, apoptotic cells were included in the analysis of caspases activity and cytokine expression (FIG. 10E, F). Drugs concentrations: AZT 5 μM; Efavirenz 100 nM; AMD3100 250 nM; T20 10 μg/ml. The data are representative results of six independent experiments with six different donors. […] (C) Highly permissive SupT1 CD4 T leukemic cells were infected with NL4-3 and cultivated for 3 days to allow substantial infection but not syncytia formation. […] After 2.5 days of additional culture, the extent of syncytia formation in each sample was evaluated by light microscopy. […] Results are representative of three independent experiments.

[4] = tested on: IL-1β; assay: Release of 17-kDa IL-1β from isolated tonsillar CD4 T-cells (ionophore stimulus); type: cell-based, human; conditions: nigericin 10 μM
Experimental: For stimulating the processing and secretion of IL-1, CD4 T-cells were isolated from HLACs by positive selection and treated with 0.5 μM PMA ([…], Calbiochem Cat. #524400) for 6 hours at 37° C. PMA induces large intracellular stores of the 35 kDa pro-IL-1β. Cells were then washed with PBS and treated with 10 μM nigericin (Sigma, Cat. # N7143) overnight at 37° C. The potassium ionophore nigericin mediates an elecroneutral exchange of intracellular K^+ ions for extracellular protons, providing a second inflammatory stimulus, which results in the maturation and release of the bioactive 17 kDa IL-1β(Perregaux et al., 1992, J Immunol 149:1294-1303; Perregaux and Gabel, 1994, J Biol Chem 269:15195-15203).
Isolated tonsillar CD4 T-cells were treated overnight with nigericin (10 μM) to provide a second inflammatory stimulus, resulting in maturation and release of bioactive 17-kDa IL-1β. Supernatants from the cell cultures were subjected to SDS-PAGE and immunoblotting. 17-kDa IL-1β was released after treatment with nigericin, but not with calcium ionophore A23187 or the nonspecific cation ionophore monensin. Thus, while these cells are primed, they must receive the appropriate proinflammatory signal for pro-IL-1β processing and release. […]

[5] = tested on: CFSE-labeled spleen CD4 T-cells; assay: Indirect killing assay with CFSE-labeled human spleen cells; type: cell-based; conditions: HIV-infected spleen HLAC effectors
Experimental: (B and C) Fresh human spleen from a single donor were processed into HLAC and assessed in indirect cell killing assay as described in FIG. 2A. Effector spleen HLAC were stimulated with PHA and IL-2 48 hours before mixing, but not during co-culturing with CFSE-labeled cells. Non-activated resting CFSE-labeled spleen cells were co-cultured with NL4-3-infected or uninfected effector cells in the presence or absence of the following drugs, AZT (5 μM), AMD3100 (250 nM), Efavirenz (100 nM), or Raltegravir (30 μM), as indicated. […] Percentages were normalized to the number of viable CFSE-positive spleen CD4 T-cells co-cultured with uninfected effectors in the presence of AZT, as depicted by (*). Error bars represent standard error of the mean for three experiments performed with three different spleen and tonsil donors.
as §1
Uninfected cells (5×10^6/ml) were labeled with 1 μM CFSE (Molecular Probes C1157), treated with 5 μM AZT for 24 h, and co-cultured with effector cells. CFSE readily diffuses into cells, where intracellular esterases cleave the acetate groups, converting it to a fluorescent, membrane-impermeable dye. […] To quantify indirect killing, mixed (CFSE-labeled+effector) cultures were washed in FACS buffer (PBS supplemented with 2 mM EDTA and 2% fetal bovine serum), stained with PE-conjugated anti-CD4, PerCP-conjugated anti-CD19, and APC-conjugated anti-CD8 (all from BD Pharmingen) and fixed in 1% paraformaldehyde. To determine the absolute numbers of the viable CFSE-labeled cells, a standard number of fluorescent beads (Flow-Count Fluorospheres, Beckman Coulter) was added to each cell-suspension sample before data acquisition. Data were collected on a FACS Calibur (BD Biosciences) and analyzed with Flowjo software (Treestar). The level of indirect killing was defined by sequential gating beginning with forward scatter versus side scatter to select live lymphocytes, subgating on the CFSE-positive population, and calculating the numbers of CD4 or CD8 T or B cells, divided by the number of fluorescent beads acquired.

[6] = tested on: HIV-1 reverse transcription products; assay: Taqman QPCR of HIV-1 reverse transcription products in infected CD4 T-cells; type: cell-based, human; conditions: 16 hours after infection with NL4-3, versus untreated cells
Experimental: Fresh HLACs were washed once with PBS and resuspended with PBS containing 5 mM EDTA and 2% fetal bovine serum. CD4 T-cells were isolated from HLACs by positive selection on CD4 microbeads (Miltenyi) and cultured overnight in 96-well U-bottomed plates (1×10^6 cells/well) as described above, and AZT was added to the indicated cell samples. Next day, the rest of the drugs were added to the indicated cell samples at concentrations as described above. Cells were chilled on ice for 15 min and DNAse-treated (Ambion, 60 U/ml, 1 hour, 37° C.) NL4-3 or Δvif NL4-3 virions (200 ng/well) were added. After a 1 hour incubation with virions on ice, cells were spinoculated at 1200 g for 2 hours at 4° C., incubated at 37° C. for 2 hours, washed three times with cold PBS, and resuspended in fresh RPMI with the indicated drugs. Eight or 16 hours after spinoculation, cell pellets were frozen at −80° C. Total DNA was purified from each cell pellet with a DNAse kit (Qiagen). Primer and probe sequences used to detect reverse transcription products are provided herein. QPCR reactions were performed in triplicates in TaqMan universal PCR master mix using each primer at 3.75 μM and probe at 2.5 μM. After 15 minutes at 95° C., reactions underwent 50 cycles of 15 sec at 95° C. followed by 1 min at 60° C. in an ABI Prism 7900HT (Applied Biosystems).
Next the status of HIV-1 reverse transcription in tonsillar CD4 T-cells after infection was examined. […] Taqman-based quantitative real-time PCR (QPCR) was used to quantify the synthesis of reverse transcription products in isolated CD4 T-cells from HLAC 16 hours after infection with NL4-3. Specific QPCR primers and probes were designed (Table 1) to monitor sequential steps in reverse transcription including generation of strong-stop DNA, first template exchange (Nef), and DNA strand elongation (Env) (FIG. 10A)

[7] = tested on: ISRE-GFP H35 cells; assay: ISRE-GFP H35 reporter cells; type: cell-based, rat; conditions: 1 μg transfected
Experimental: Hepatocyte-derived reporter ISRE-GFP H35 cells were maintained as previously described (King et al., 2007, Lab Chip 7:77-85; Patel et al., 2009, Proc Natl Acad Sci USA 106:12867-12872). For microscopic imaging, ISRE-GFP reporter H35 cells were cultured on 35 mm glass bottom culture dishes (MatTeck) and were treated with AZT (5 μM), Efavirenz (100 nM), or Raltegravir (30 μM) 12 hours before infection. Cells were then infected with 2 μg/ml of replication competent VSV-G pseudotyped NL4-3. After 48 hours incubation at 37° C., cells were fixed in 2% paraformaldehyde at 25° C. for 1 hour, washed with PBS and stained with 10 μg/ml Hoechst 33342 (Invitrogen) and 1 μg/ml 7-AAD (eBioscience) for 15 min at 25° C. Cells were washed 3 times with PBS and were analyzed with an Axio observer Z1 microscope (Zeiss) equipped with an EC Plan NEOFLUAR 10×/0.3 PHM27 objective, filter sets 38HE, 45, and 49, and an Axiocam MRM REV 3.

Molecule: CC(C)c1cc(Cl)cc(C(C)C)c1NC(=O)NS(=O)(=O)c1cccc(C(C)O)c1 (centres unmarked) [CP-412,245]
- post-translational processing and secretion of IL-1β [1]: inhibited the post-translational processing and secretion of IL-1β

Molecule: CC(C)c1cc(Cl)cc(C(C)C)c1NC(=O)NS(=O)(=O)c1cccc(C(C)(C)O)c1 [CP-424,174]
- post-translational processing and secretion of IL-1β [1]: inhibited the post-translational processing and secretion of IL-1β

Molecule: CC(C)(C)NC(=O)[C@@H]1CN(Cc2cccnc2)CCN1C[C@@H](O)C[C@@H](Cc1ccccc1)C(=O)N[C@H]1c2ccccc2C[C@H]1O [Indinavir]
- indirect killing (loss) of resting CFSE-labeled CD4 T-cells [2]: inhibit indirect killing
- syncytia formation / cell-cell fusion [3]: do not block syncytia formation

Molecule: CC(C)(C)NC(=O)[C@@H]1C[C@@H]2CCCC[C@@H]2CN1C[C@@H](O)[C@H](Cc1ccccc1)NC(=O)[C@H](CC(N)=O)NC(=O)c1ccc2ccccc2n1 [Saquinavir]
- indirect killing (loss) of resting CFSE-labeled CD4 T-cells [2]: inhibit indirect killing
- syncytia formation / cell-cell fusion [3]: do not block syncytia formation

Molecule: Cc1ccc(-c2ccc3c(c2)C=C(C(=O)Nc2ccc(C[N+](C)(C)C4CCOCC4)cc2)CCC3)cc1.[Cl-] [TAK779]
- indirect killing of CFSE-labeled CD4 T-cells ([2]; WEAU 16-8 (R5/X4)-infected effector cells): had no effect

Molecule: CC(NC(=O)[C@H](Cc1ccccc1)NC(=O)OCc1ccccc1)C(=O)CF (some centres unmarked) [Z-FA-FMK]
- death of abortively infected CD4 T-cells with caspase inhibitors ([2]; 20 μM caspase inhibitor, AZT 5 μM): persisted

Molecule: COC(=O)C[C@H](NC(=O)[C@H](C)NC(=O)[C@@H](NC(=O)[C@H](Cc1ccc(O)cc1)NC(=O)OCc1ccccc1)C(C)C)C(=O)CF [Z-YVAD]
- nigericin-induced IL-1β release after pre-treatment with caspase inhibitor [4]: blocked

Molecule: Cc1ccnc2c1NC(=O)c1cccnc1N2C1CC1 [nevirapine]
- indirect killing (loss) of resting CFSE-labeled CD4 T-cells [2]: blocked indirect killing of resting CD4 T-cells as efficiently as AMD3100

Molecule: Cc1nnc(C(=O)NC(C)(C)c2nc(C(=O)NCc3ccc(F)cc3)c(O)c(=O)n2C)o1 [raltegravir]
- indirect killing (loss) of resting CFSE-labeled CD4 T-cells [2]: did not prevent abortive infection killing
- loss of CFSE-labeled spleen CD4 T-cells [5]: did not prevent CD4 T-cell killing
- reverse transcription products corresponding to strong-stop DNA [6]: similar

Molecule: poly(I:C)
- ISRE-GFP reporter activation by transfected nucleic acid [7]: elicited a comparable ISRE-GFP response
